Data: patent US4861788A, “Antibacterial 1-normon-2-yl-heterocyclic compounds” (Beecham Group plc, priority 1983, dated 1989)
≈ marks a conversion by molar mass, not a printed value. Where two headings read alike, the source gives them in different places.

How the values were obtained:
M. hyorhinis ATCC 25021 = assay: MIC against Mycoplasma in vitro (Friis broth with agarose); assay type: cell-based; settings: Mesomycoplasma hyorhinis, ATCC25021, 144 h; M. hyorhinis ATCC 25021; 6 days at 37° C; read-out: MIC
Bord. bronchiseptica B08 = assay: MIC against veterinary bacteria in vitro (Diagnostic Sensitivity Test Agar); settings: Bordetella bronchiseptica, B08, 18 h
Description: (§1) The activity of the normonyl derivatives of the Examples against various veterinarily important bacteria, was assayed in vitro using two-fold serial dilutions in Diagnostic Sensitivity Test Agar inoculated with 10^4 organisms.

M. hyopneumoniae TAM 6N = assay: MIC against Mycoplasma in vitro (Friis broth with agarose); assay type: cell-based; settings: Mesomycoplasma hyopneumoniae, TAM6N, 144 h
M. hyopneumoniae UCD 1 = assay: as above; assay type: cell-based; settings: Mesomycoplasma hyopneumoniae, UCD1, 144 h
M. bovis NCTC 10131 = assay: microbe, parasite or virus in culture; assay type: cell-based; settings: NCTC10131, 144 h
M. hyopneumoniae JF 435 = assay: MIC against Mycoplasma in vitro (Friis broth with agarose); assay type: cell-based; settings: Mesomycoplasma hyopneumoniae, JF435, 144 h
Strep. agalactiae SPA1 = assay: MIC against veterinary bacteria in vitro (Diagnostic Sensitivity Test Agar); settings: Streptococcus agalactiae, SPA1, 18 h
Description: as §1

Bord. bronchiseptica B09 = assay: as above; settings: Bordetella bronchiseptica, B09, 18 h
Description: as §1

[1] = system: M. hyopneumoniae J2206/183^b; assay: MIC against Mycoplasma in vitro (Friis broth with agarose); assay type: cell-based; settings: Mesomycoplasma hyopneumoniae, 144 h
Past. multocida PA1 = assay: MIC against veterinary bacteria in vitro (Diagnostic Sensitivity Test Agar); settings: Pasteurella multocida, PA1, 18 h
Description: as §1

M. pneumoniae ATCC 15492 = assay: MIC against Mycoplasma in vitro (Friis broth with agarose); assay type: cell-based; settings: Mycoplasmoides pneumoniae, ATCC15492, 144 h
M. hyopneumoniae Str. 11 = assay: as above; assay type: cell-based; settings: Mesomycoplasma hyopneumoniae
M. dispar NCTC 10125 = assay: as above; assay type: cell-based; settings: 144 h
M. hyopneumoniae MS 16 = assay: as above; assay type: cell-based; settings: Mesomycoplasma hyopneumoniae, MS16, 144 h
E. coli NCTC 10418 = assay: MIC against veterinary bacteria in vitro (Diagnostic Sensitivity Test Agar); settings: Escherichia coli, NCTC10418, 18 h
Description: as §1

E. coli E1 = assay: as above; settings: Escherichia coli, E1, 18 h
Description: as §1

Strep. dysgalactiae SPD1 = assay: as above; settings: Streptococcus dysgalactiae, SPD1, 18 h
Description: as §1

M. gallisepticum S6 = assay: MIC against Mycoplasma in vitro (Friis broth with agarose); assay type: cell-based; settings: Mycoplasmoides gallisepticum
[2] = system: Staph. aureus 152 (pen. sens); assay: MIC against veterinary bacteria in vitro (Diagnostic Sensitivity Test Agar); settings: Staphylococcus aureus, 18 h
Description: as §1

Strep. uberis SPU1 = assay: as above; settings: Streptococcus uberis, SPU1, 18 h
Description: as §1

[3] = system: M. hyopneumoniae ATCC 25095; assay: MIC against Mycoplasma in vitro (Friis broth with agarose); assay type: cell-based; settings: Mesomycoplasma hyopneumoniae, ATCC25095, 144 h
[4] = system: Staph. aureus B4 (pen. resistant); assay: MIC against veterinary bacteria in vitro (Diagnostic Sensitivity Test Agar); settings: Staphylococcus aureus, 18 h
Description: as §1

[5] = system: Erysipelothrix rhusiopathiae NCTC 8163; assay: as above; settings: NCTC8163, 18 h
Description: as §1

S. typhimurium S18 = assay: as above; settings: Salmonella enterica, 18 h
Description: as §1

[6] = system: M. hyosynoviae ATCC 25591; assay: MIC against Mycoplasma in vitro (Friis broth with agarose); assay type: cell-based; settings: 144 h
[7] = system: M. bovigenitalium ATCC 14173; assay: as above; assay type: cell-based; settings: 144 h
[8] = system: Corynebacterium pyogenes CY1; assay: MIC against veterinary bacteria in vitro (Diagnostic Sensitivity Test Agar); settings: CY1, 18 h
Description: as §1

[9] = system: M. hyopneumoniae NCTC 101101; assay: MIC against Mycoplasma in vitro (Friis broth with agarose); assay type: cell-based; settings: Mesomycoplasma hyopneumoniae, NCTC101101, 144 h
[10] = system: Strep. suis (group D) SPS11; assay: MIC against veterinary bacteria in vitro (Diagnostic Sensitivity Test Agar); settings: Streptococcus suis, 18 h
Description: as §1

Past. multocida PA2 = assay: as above; settings: Pasteurella multocida, PA2, 18 h
Description: as §1

[11] = M. pneumoniae ATCC 15492, 6 days at 37° C, read-out: MIC
[12] = M. dispar NCTC 10125, 6 days at 37° C, read-out: MIC
[13] = 144 h, M. gallisepticum S6, 6 days at 37° C, read-out: MIC
[14] = M. bovigenitalium ATCC 14173, 6 days at 37° C, read-out: MIC
[15] = M. hyopneumoniae TAM 6N, 6 days at 37° C, read-out: MIC
[16] = M. hyopneumoniae UCD 1, 6 days at 37° C, read-out: MIC
[17] = M. hyopneumoniae JF 435, 6 days at 37° C, read-out: MIC
[18] = M. hyopneumoniae J2206/183^b, 6 days at 37° C, read-out: MIC
[19] = 144 h, M. hyopneumoniae Str. 11, 6 days at 37° C, read-out: MIC
[20] = M. hyosynoviae ATCC 25591, 6 days at 37° C, read-out: MIC
[21] = M. hyopneumoniae NCTC 101101, 6 days at 37° C, read-out: MIC
[22] = M. hyopneumoniae MS 16, 6 days at 37° C, read-out: MIC
[23] = M. hyopneumoniae ATCC 25095, 6 days at 37° C, read-out: MIC

SMILES	MIC (M. hyorhinis ATCC 25021) [µg/mL]	MIC (Bord. bronchiseptica B08) [µg/mL]	MIC (M. bovis NCTC 10131) [µg/mL]	MIC (Strep. agalactiae SPA1) [µg/mL]	MIC (Bord. bronchiseptica B09) [µg/mL]	MIC (Past. multocida PA1) [µg/mL]	MIC (M. pneumoniae ATCC 15492; [11]) [µg/mL]	MIC (E. coli NCTC 10418) [µg/mL]	MIC (E. coli E1) [µg/mL]	MIC (Strep. dysgalactiae SPD1) [µg/mL]	MIC (M. gallisepticum S6; [13]) [µg/mL]	MIC [2] [µg/mL]	MIC (Strep. uberis SPU1) [µg/mL]	MIC [4] [µg/mL]	MIC [5] [µg/mL]	MIC (S. typhimurium S18) [µg/mL]	MIC [8] [µg/mL]	MIC [10] [µg/mL]	MIC (M. hyopneumoniae TAM 6N; [15]) [µg/mL]	MIC (M. hyopneumoniae JF 435; [17]) [µg/mL]	further results
CC(=Cc1nnc(-c2cccs2)o1)CC1OCC(CC2OC2C(C)C(C)O)C(O)C1O (centres unmarked) [Example 6, 2-(1-Normon-2-yl)-5-(2-thienyl)-1,3,4-oxadiazole A]	1 (≈ 2.22 µM)	> 80	0.05 (≈ 0.111 µM)	40 (≈ 88.8 µM)	80 (≈ 178 µM)	2.5 (≈ 5.55 µM)	> 10	> 80	> 80	40 (≈ 88.8 µM)	> 10	5 (≈ 11.1 µM)	5 (≈ 11.1 µM)	2.5 (≈ 5.55 µM)	80 (≈ 178 µM)	> 80	> 80	80 (≈ 178 µM)			MIC (M. hyopneumoniae TAM 6N): 5 µg/mL (≈ 11.1 µM); MIC (M. hyopneumoniae UCD 1): 5 µg/mL (≈ 11.1 µM); MIC (M. hyopneumoniae JF 435): 5 µg/mL (≈ 11.1 µM); MIC [1]: 5 µg/mL (≈ 11.1 µM); MIC (M. hyopneumoniae Str. 11; STR.11, 144 h): 2.5 µg/mL (≈ 5.55 µM); MIC (M. dispar NCTC 10125; [12]): 1 µg/mL (≈ 2.22 µM); MIC (M. hyopneumoniae MS 16): 2.5 µg/mL (≈ 5.55 µM); MIC [3]: 2.5 µg/mL (≈ 5.55 µM); MIC [6]: 2.5 µg/mL (≈ 5.55 µM); MIC [7, 14]: 0.25 µg/mL (≈ 0.555 µM); MIC [9]: 5 µg/mL (≈ 11.1 µM)
CC(=Cc1nnc(-c2ccncc2)o1)CC1OCC(CC2OC2C(C)C(C)O)C(O)C1O (centres unmarked) [Example 7, 2-(1-Normon-2-yl)-5-(4-pyridyl)-1,3,4-oxadiazole A]	0.5 (≈ 1.12 µM)	> 80	0.025 (≈ 0.0561 µM)	20 (≈ 44.9 µM)	20 (≈ 44.9 µM)	2.5 (≈ 5.61 µM)		> 80	> 80	10 (≈ 22.4 µM)		10 (≈ 22.4 µM)	2.5 (≈ 5.61 µM)	10 (≈ 22.4 µM)	80 (≈ 180 µM)	> 80	> 80	> 80	2.5 (≈ 5.61 µM)	2.5 (≈ 5.61 µM)	MIC (M. hyopneumoniae UCD 1; [16]): 1 µg/mL (≈ 2.24 µM); MIC [1, 18]: 2.5 µg/mL (≈ 5.61 µM); MIC (M. pneumoniae ATCC 15492): > 10 µg/mL; MIC (M. hyopneumoniae Str. 11; [19]): 0.5 µg/mL (≈ 1.12 µM); MIC (M. dispar NCTC 10125): 0.25 µg/mL (≈ 0.561 µM); MIC (M. gallisepticum S6; S6, 144 h): > 10 µg/mL; MIC [6, 20]: 0.5 µg/mL (≈ 1.12 µM); MIC [7]: 0.25 µg/mL (≈ 0.561 µM); MIC [9, 21]: 2.5 µg/mL (≈ 5.61 µM); MIC (Past. multocida PA2): 0.625 µg/mL (≈ 1.4 µM)
CC(=Cc1nnc(-c2ccco2)o1)CC1OCC(CC2OC2C(C)C(C)O)C(O)C1O (centres unmarked) [Example 8, 2-(2-Furyl)-5-(1-normon-2-yl)-1,3,4-oxadiazole A]	2.5 (≈ 5.75 µM)	> 80	0.1 (≈ 0.23 µM)	> 80	80 (≈ 184 µM)	1.25 (≈ 2.88 µM)	> 10	> 80	> 80	40 (≈ 92.1 µM)	> 10	40 (≈ 92.1 µM)	10 (≈ 23 µM)	20 (≈ 46 µM)	> 80	> 80	> 80	> 80	10 (≈ 23 µM)	10 (≈ 23 µM)	MIC (M. hyopneumoniae UCD 1; [16]): 5 µg/mL (≈ 11.5 µM); MIC [1, 18]: 10 µg/mL (≈ 23 µM); MIC (M. hyopneumoniae Str. 11; [19]): 5 µg/mL (≈ 11.5 µM); MIC (M. dispar NCTC 10125; [12]): 1 µg/mL (≈ 2.3 µM); MIC [6, 20]: 2.5 µg/mL (≈ 5.75 µM); MIC [7, 14]: 0.5 µg/mL (≈ 1.15 µM); MIC [9, 21]: 10 µg/mL (≈ 23 µM); MIC (Past. multocida PA2): 0.625 µg/mL (≈ 1.44 µM)
CC(=Cc1nc(-c2ccccc2)no1)CC1OCC(CC2OC2C(C)C(C)O)C(O)C1O (centres unmarked) [Example 15, 5-(1-Normon-2-yl)-3-phenyl-1,2,4-oxadiazole A]	2.5 (≈ 5.62 µM)	> 80	0.1 (≈ 0.225 µM)		80 (≈ 180 µM)	40 (≈ 90 µM)	> 10	> 80	> 80	10 (≈ 22.5 µM)	> 10	5 (≈ 11.2 µM)	2.5 (≈ 5.62 µM)	5 (≈ 11.2 µM)	40 (≈ 90 µM)	> 80	> 80	> 80	10 (≈ 22.5 µM)	10 (≈ 22.5 µM)	MIC (M. hyopneumoniae UCD 1; [16]): 10 µg/mL (≈ 22.5 µM); MIC [1, 18]: 10 µg/mL (≈ 22.5 µM); MIC (M. hyopneumoniae Str. 11; [19]): 5 µg/mL (≈ 11.2 µM); MIC (M. dispar NCTC 10125; [12]): 2.5 µg/mL (≈ 5.62 µM); MIC (M. hyopneumoniae MS 16; [22]): 5 µg/mL (≈ 11.2 µM); MIC [3, 23]: 5 µg/mL (≈ 11.2 µM); MIC [6, 20]: 10 µg/mL (≈ 22.5 µM); MIC [7, 14]: 0.5 µg/mL (≈ 1.12 µM); MIC [9, 21]: 10 µg/mL (≈ 22.5 µM)
CC(=Cc1nc(-c2ccc([N+](=O)[O-])cc2)no1)CC1OCC(CC2OC2C(C)C(C)O)C(O)C1O (centres unmarked) [Example 16, 5-(1-Normon-2-yl)-3-(4-nitrophenyl)-1,2,4-oxadiazole]	0.25 (≈ 0.511 µM)	80 (≈ 163 µM)	0.25 (≈ 0.511 µM)	5 (≈ 10.2 µM)	10 (≈ 20.4 µM)	5 (≈ 10.2 µM)	> 10	> 80	> 80	10 (≈ 20.4 µM)	> 10	2.5 (≈ 5.11 µM)	2.5 (≈ 5.11 µM)	1.25 (≈ 2.55 µM)	10 (≈ 20.4 µM)	> 80	> 80	80 (≈ 163 µM)	1 (≈ 2.04 µM)	1 (≈ 2.04 µM)	MIC (M. hyopneumoniae UCD 1): 0.5 µg/mL (≈ 1.02 µM); MIC [1, 18]: 0.5 µg/mL (≈ 1.02 µM); MIC (M. hyopneumoniae Str. 11; STR.11, 144 h): 0.25 µg/mL (≈ 0.511 µM); MIC (M. dispar NCTC 10125): 0.1 µg/mL (≈ 0.204 µM); MIC [3]: 0.1 µg/mL (≈ 0.204 µM); MIC [6, 20]: 5 µg/mL (≈ 10.2 µM); MIC [7, 14]: 0.5 µg/mL (≈ 1.02 µM); MIC [9]: 1 µg/mL (≈ 2.04 µM)
CC(=Cc1noc(-c2ccccc2)n1)CC1OCC(CC2OC2C(C)C(C)O)C(O)C1O (centres unmarked) [Example 17, 3-(1-Normon-2-yl)-5-phenyl-1,2,4-oxadiazole]	2.5 (≈ 5.62 µM)	> 80	0.05 (≈ 0.112 µM)	5 (≈ 11.2 µM)	40 (≈ 90 µM)	2.5 (≈ 5.62 µM)	> 10	> 80	> 80	2.5 (≈ 5.62 µM)	10 (≈ 22.5 µM)	1.25 (≈ 2.81 µM)	0.625 (≈ 1.41 µM)	1.25 (≈ 2.81 µM)	10 (≈ 22.5 µM)	> 80	> 80	20 (≈ 45 µM)	2.5 (≈ 5.62 µM)	5 (≈ 11.2 µM)	MIC (M. hyopneumoniae UCD 1): 2.5 µg/mL (≈ 5.62 µM); MIC [1, 18]: 2.5 µg/mL (≈ 5.62 µM); MIC (M. hyopneumoniae Str. 11; [19]): 1 µg/mL (≈ 2.25 µM); MIC (M. dispar NCTC 10125; [12]): 0.5 µg/mL (≈ 1.12 µM); MIC (M. hyopneumoniae MS 16; [22]): 1 µg/mL (≈ 2.25 µM); MIC [3, 23]: 1 µg/mL (≈ 2.25 µM); MIC [6, 20]: 1 µg/mL (≈ 2.25 µM); MIC [7]: 0.1 µg/mL (≈ 0.225 µM); MIC [9, 21]: 2.5 µg/mL (≈ 5.62 µM)
